Measured values taken from paper PMC8333062, “Chemical tools for epichaperome-mediated interactome dysfunctions of the central nervous system” (Nature Communications, 2021).
Values joined by “and” are separate entries in the source; they are usually repeats but may differ in a detail not shown here. Equal entries are not always repeated.

Legend:
patient-derived GSCs = assay: GSC viability (CellTiter-Glo, 48 h); assay type: cell-based, human; set-up: %Survival of cells at day 0 (ATP levels): concentration or dose not given beside the values; %Survival (ATP levels): reference not given here; settings: for %Survival (ATP levels): 1 μM, 48 h, individual replicates, listed as PU-HZ151; for %Survival of cells at day 0 (ATP levels): mean
97 kinases [1] = target: T1, 97 kinases (Homo sapiens, UniProt P30530); assay: scanEDGE off-target screen; assay type: binding; settings: read-out: %Ctrl AXL
T1 construct: purchased Ambit Biosciences (scanEDGE / KINOMEscan) scanEDGE 97 kinase panel; host or cells: T7 phage in E. coli BL21-derived host; remaining kinases in HEK-293 cells

97 kinases [2] = target: T2, 97 kinases (Homo sapiens, UniProt O14920); assay: scanEDGE off-target screen; assay type: binding; settings: read-out: %Ctrl IKK-beta
T2 construct: purchased Ambit Biosciences (scanEDGE / KINOMEscan) scanEDGE 97 kinase panel; host or cells: T7 phage in E. coli BL21-derived host; remaining kinases in HEK-293 cells
T2 sequence (O14920 whole entry): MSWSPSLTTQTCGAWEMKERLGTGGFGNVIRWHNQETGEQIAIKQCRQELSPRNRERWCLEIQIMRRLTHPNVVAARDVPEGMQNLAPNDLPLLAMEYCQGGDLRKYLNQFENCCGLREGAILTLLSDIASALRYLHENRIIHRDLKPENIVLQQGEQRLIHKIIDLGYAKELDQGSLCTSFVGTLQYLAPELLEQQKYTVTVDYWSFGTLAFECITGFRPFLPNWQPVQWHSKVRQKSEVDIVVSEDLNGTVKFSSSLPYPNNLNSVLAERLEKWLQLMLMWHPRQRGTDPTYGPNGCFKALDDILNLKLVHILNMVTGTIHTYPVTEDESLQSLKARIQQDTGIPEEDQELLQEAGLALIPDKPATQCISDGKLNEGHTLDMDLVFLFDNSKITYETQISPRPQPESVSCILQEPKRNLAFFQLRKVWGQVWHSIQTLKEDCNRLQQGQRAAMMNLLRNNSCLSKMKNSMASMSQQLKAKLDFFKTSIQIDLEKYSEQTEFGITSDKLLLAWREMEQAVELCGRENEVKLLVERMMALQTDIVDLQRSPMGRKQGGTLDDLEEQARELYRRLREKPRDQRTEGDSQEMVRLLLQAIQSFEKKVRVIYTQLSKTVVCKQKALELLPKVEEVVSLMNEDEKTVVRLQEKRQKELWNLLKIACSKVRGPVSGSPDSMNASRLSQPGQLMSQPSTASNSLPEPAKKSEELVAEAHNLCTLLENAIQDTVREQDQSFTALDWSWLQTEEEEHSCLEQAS

T1 sequence (P30530 26-894): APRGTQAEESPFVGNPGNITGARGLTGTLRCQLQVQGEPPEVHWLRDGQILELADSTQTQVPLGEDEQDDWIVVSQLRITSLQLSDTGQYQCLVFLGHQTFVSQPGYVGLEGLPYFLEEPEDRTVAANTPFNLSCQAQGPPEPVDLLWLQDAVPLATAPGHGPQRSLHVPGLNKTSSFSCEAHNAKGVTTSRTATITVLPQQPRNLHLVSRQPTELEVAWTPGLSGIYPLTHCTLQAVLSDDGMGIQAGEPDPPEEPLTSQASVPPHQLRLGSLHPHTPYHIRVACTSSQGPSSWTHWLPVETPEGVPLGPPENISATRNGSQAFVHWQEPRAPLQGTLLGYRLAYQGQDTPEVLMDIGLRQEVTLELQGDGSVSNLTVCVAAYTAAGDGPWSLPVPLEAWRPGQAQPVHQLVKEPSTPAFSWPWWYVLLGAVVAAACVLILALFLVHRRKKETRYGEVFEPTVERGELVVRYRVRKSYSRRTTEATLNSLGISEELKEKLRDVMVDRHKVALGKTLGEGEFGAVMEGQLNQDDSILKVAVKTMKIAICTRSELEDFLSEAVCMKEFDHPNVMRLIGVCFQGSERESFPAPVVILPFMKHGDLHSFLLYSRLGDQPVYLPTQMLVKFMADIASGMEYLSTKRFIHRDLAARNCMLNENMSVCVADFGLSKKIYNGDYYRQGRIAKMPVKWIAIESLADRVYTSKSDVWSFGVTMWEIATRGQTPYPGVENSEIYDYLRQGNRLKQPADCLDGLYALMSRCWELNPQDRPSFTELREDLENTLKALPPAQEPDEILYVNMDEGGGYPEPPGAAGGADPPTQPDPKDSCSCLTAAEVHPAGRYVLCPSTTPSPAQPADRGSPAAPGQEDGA

SMILES: CC(C)(C)CNCCn1c(Sc2cc3c(cc2I)OCO3)nc2c(N)ncnc21 [Compound 85]
- %Survival (ATP levels) (patient-derived GSCs; GSC #5): 31.63% and 18.68% and 4.03% and -9.88%
- %Survival (ATP levels) (patient-derived GSCs; GSC #6): -14.27% and -27.68% and -18.96% and -23.61%
- %Survival (ATP levels) (patient-derived GSCs; GSC #7): -51.27% and -33.16% and -43.96% and -19.32%
- %Survival (ATP levels) (patient-derived GSCs; GSC #8): -82.2411% and -82.5656% and -44.1066% and -65.5015% and -65.6835% and -64.1317%
- %Survival (ATP levels) (patient-derived GSCs; GSC #9): -79.4354% and -88.1536% and -74.4757% and -75.2771% and -91.5176% and -88.8402%
- %Survival (ATP levels) (patient-derived GSCs; GSC #10): -43.1943% and -48.7032% and -76.5217% and -90.9365%
- %Survival (ATP levels) (patient-derived GSCs; GSC #13): -9.18% and -20.17% and 1.94% and -5.51% and 23.62% and 22.18%
- %Survival (ATP levels) (patient-derived GSCs; GSC #15): -58.61% and -73.45% and -36.64% and -48.92%
- %Survival (ATP levels) (patient-derived GSCs; GSC #18): -64.4% and -60.27% and -57.05% and -50.97%
- %Survival (ATP levels) (patient-derived GSCs; GSC #19): -11.96% and -35.33% and -40.35% and -2.66% and -9.81%
- %Survival (ATP levels) (patient-derived GSCs; GSC #24): -81.22% and -79.53% and -20.38% and -28.49%
- %Survival (ATP levels) (patient-derived GSCs; GSC #30): -95.74% and -99.62% and -58.98% and -67.84% and -66.79% and -85.07% and -94.89%
- %Survival (ATP levels) (patient-derived GSCs; GSC #31): 36.5% and 32.49% and 59.07% and 79.62% and 33.55% and 9%
- %Survival of cells at day 0 (ATP levels) (patient-derived GSCs; GSC# 5): 11.1%
- %Survival of cells at day 0 (ATP levels) (patient-derived GSCs; GSC# 6): -21.1%
- %Survival of cells at day 0 (ATP levels) (patient-derived GSCs; GSC# 8): -67.4%
- %Survival of cells at day 0 (ATP levels) (patient-derived GSCs; GSC# 9): -82.9%
- %Survival of cells at day 0 (ATP levels) (patient-derived GSCs; GSC# 10): -64.8%
- %Survival of cells at day 0 (ATP levels) (patient-derived GSCs; GSC# 13): 2.1%
- %Survival of cells at day 0 (ATP levels) (patient-derived GSCs; GSC# 15): -54.4%
- %Survival of cells at day 0 (ATP levels) (patient-derived GSCs; GSC# 17): 16.9%
- %Survival of cells at day 0 (ATP levels) (patient-derived GSCs; GSC# 18): -58.2%
- %Survival of cells at day 0 (ATP levels) (patient-derived GSCs; GSC# 19): -20%
- %Survival of cells at day 0 (ATP levels) (patient-derived GSCs; GSC# 24): -52.4%
- %Survival of cells at day 0 (ATP levels) (patient-derived GSCs; GSC# 30): -81.3%
- %Survival of cells at day 0 (ATP levels) (patient-derived GSCs; GSC# 31): 41.7%
- remaining binding at 10 µM (97 kinases [1]): 100%
- remaining binding at 10 µM (97 kinases [2]): 88%
